ChEMBL document CHEMBL5137099, “Discovery of Novel cccDNA Reducers toward the Cure of Hepatitis B Virus Infection” (J Med Chem, 2022)
≈ marks a conversion by molar mass, not a printed value.

Experiments:
[1] = Aqueous solubility of the compound; assay type: physicochemical; conditions: buffer
[2] = tested on: Hepatitis B virus; assay: Antiviral activity against HBV infected in human HepDES19 cells assessed as reduction in HBV cccDNA production by measuring inhibition of HBeAg secretion incubated for 5 days by ELISA; assay type: functional, organism-based; conditions: HepDES19, 120 h
[3] = tested on: Hepatitis B virus; assay: Antiviral activity against HBV infected in human HepG2 cells assessed as reduction in HBeAg secretion incubated for 5 days by counter screen assay; assay type: functional, organism-based; conditions: HepG2, 120 h
[4] = Metabolic stability in human microsomes assessed as clearance; assay type: ADME, Microsome; conditions: read-out: CLH
[5] = Permeability of the compound by PAMPA analysis; assay type: ADME; conditions: read-out: permeability

Compound `CCNc1ccc2c(=O)c3cccc(F)c3oc2c1` has a solubility [1] of under 1 µg/mL, an IC50 [2] of 0.61 µM and an IC50 [3] of over 50 µM. It also gave a CLint scaled [4] of 22.6 mL/min/kg and a Papp [5] of 0.36 ×10⁻⁶ cm/s.

In the case of `O=C(O)CC1CCN(c2ccc3c(=O)c4cccc(Cl)c4oc3c2)C1` (configuration not stated), the solubility [1] is reported as under 465 µg/mL, the IC50 [2] is reported as 6.62 µM and the IC50 [3] is reported as over 50 µM. For the same compound, the Papp [5] was 1.55 ×10⁻⁶ cm/s.

In the case of `CC1(C)CN(c2ccc3c(=O)c4cccc(Cl)c4oc3c2)CC1C(=O)O` (configuration not stated), the solubility [1] is reported as 294 µg/mL (≈ 791 µM), the IC50 [2] is reported as 12.7 µM and the IC50 [3] is reported as over 50 µM. For the same compound, the Papp [5] was 0.98 ×10⁻⁶ cm/s.

Compound `CCNc1ccc2c(=O)c3cccc(Cl)c3oc2c1` has a solubility [1] of under 1 µg/mL, an IC50 [2] of 0.17 µM and an IC50 [3] of over 50 µM. The CLint scaled [4] was 15.7 mL/min/kg and the Papp [5] was 6.73 ×10⁻⁶ cm/s.

Work on `O=C(O)C1CCCN1c1ccc2c(=O)c3cccc(Cl)c3oc2c1` (configuration not stated) yielded a solubility [1] of 290 µg/mL (≈ 844 µM), an IC50 [2] of 11.5 µM and an IC50 [3] of over 50 µM. The CLint scaled [4] was 6.2 mL/min/kg and the Papp [5] was 2.79 ×10⁻⁶ cm/s.

In the case of `O=C1Nc2ccc(N3CCC(C(=O)O)C3)cc2Oc2c(Cl)cccc21` (configuration not stated), the solubility [1] is reported as under 415 µg/mL, the IC50 [2] is reported as over 50 µM and the IC50 [3] is reported as over 50 µM. The Papp [5] was 1 ×10⁻⁶ cm/s.

For `O=c1c2ccc(N3CCOCC3)cc2oc2c(F)cccc12`, the solubility [1] was under 1 µg/mL, the IC50 [2] was 2.1 µM and the IC50 [3] was over 50 µM. It also gave a CLint scaled [4] of 20.8 mL/min/kg and a Papp [5] of 1.8 ×10⁻⁶ cm/s.

In the case of `O=C(O)C1CCN(c2ccc3c(=O)c4cccc(Cl)c4oc3n2)C1` (configuration not stated), the solubility [1] is reported as 410 µg/mL (≈ 1190 µM), the IC50 [2] is reported as 50 µM and the IC50 [3] is reported as over 50 µM. It also gave a CLint scaled [4] of 6.2 mL/min/kg and a Papp [5] of 1.55 ×10⁻⁶ cm/s.

Work on `O=C1Nc2ccc(N3CCCC3)cc2Oc2c(Cl)cccc21` yielded a solubility [1] of under 1 µg/mL, an IC50 [2] of 5.86 µM and an IC50 [3] of over 50 µM. It also gave a Papp [5] of 2.09 ×10⁻⁶ cm/s.

With `O=C(O)[C@H]1CN(c2ccc3c(=O)c4cccc(Cl)c4oc3c2)C[C@@H]1c1ccc(F)cc1` the IC50 [2] was 7.39 µM and the IC50 [3] was over 50 µM.

In the case of `O=C(O)c1cc2c(=O)c3cccc(Cl)c3oc2cc1N1CCCC1`, the solubility [1] is reported as 30 µg/mL (≈ 87.3 µM), the IC50 [2] is reported as over 100 µM and the IC50 [3] is reported as over 50 µM. For the same compound, the CLint scaled [4] was 6.7 mL/min/kg and the Papp [5] was 8.64 ×10⁻⁶ cm/s.

Work on `CCN(CC)c1ccc2c(=O)c3cccc(Cl)c3oc2c1` yielded a solubility [1] of under 1 µg/mL, an IC50 [2] of 1.65 µM and an IC50 [3] of over 50 µM. It also gave a CLint scaled [4] of 20.3 mL/min/kg and a Papp [5] of 0.54 ×10⁻⁶ cm/s.

`Fc1cccc2c1Oc1cc(N3CCCC3)ccc1C2` gave a solubility [1] of under 1 µg/mL, an IC50 [2] of 3.99 µM and an IC50 [3] of over 50 µM.

Work on `Clc1cccc2c1Oc1cc(N3CCCC3)ccc1C2` yielded a solubility [1] of under 1 µg/mL, an IC50 [2] of 1.11 µM and an IC50 [3] of over 50 µM. It also gave a Papp [5] of 0.36 ×10⁻⁶ cm/s.

Compound `O=C(O)C1CCCN(c2ccc3c(=O)c4cccc(Cl)c4oc3c2)C1` (configuration not stated) has a solubility [1] of under 474 µg/mL, an IC50 [2] of 3.82 µM and an IC50 [3] of over 50 µM. It also gave a CLint scaled [4] of 6.2 mL/min/kg and a Papp [5] of 2.43 ×10⁻⁶ cm/s.

Compound `O=c1c2ccc(N3CCCCCC3)cc2oc2c(F)cccc12` has a solubility [1] of 73 µg/mL (≈ 234 µM), an IC50 [2] of 7.56 µM and an IC50 [3] of over 50 µM. The CLint scaled [4] was 6.2 mL/min/kg and the Papp [5] was 1.64 ×10⁻⁶ cm/s.

With `O=c1c2ccc(N3CCCC3)cc2oc2c(F)cccc12` the solubility [1] was under 1 µg/mL, the IC50 [2] was 0.21 µM and the IC50 [3] was over 50 µM. It also gave a CLint scaled [4] of 20.5 mL/min/kg and a Papp [5] of 0.95 ×10⁻⁶ cm/s.

Compound `OC1(C(F)(F)F)c2ccc(N3CCCC3)cc2Oc2c(Cl)cccc21` (configuration not stated) has a solubility [1] of under 1 µg/mL, an IC50 [2] of 19.2 µM and an IC50 [3] of over 50 µM. It also gave a Papp [5] of 6.73 ×10⁻⁶ cm/s.

`O=C(O)C1CCN(c2ccc3c(c2)Oc2c(Cl)cccc2S3(=O)=O)C1` (configuration not stated) showed a solubility [1] of under 506 µg/mL, an IC50 [2] of over 50 µM and an IC50 [3] of over 50 µM. The Papp [5] was 1.26 ×10⁻⁶ cm/s.

`O=c1c2ccc(N3CCCC3)cc2oc2c(Cl)cccc12` gave a solubility [1] of under 1 µg/mL, an IC50 [2] of 0.23 µM and an IC50 [3] of over 50 µM. The CLint scaled [4] was 18.9 mL/min/kg and the Papp [5] was 0.24 ×10⁻⁶ cm/s.

`Clc1cccc2c1Oc1cc(N3CCCC3)ccc1C2C1COC1` (configuration not stated) showed an IC50 [2] of 7.33 µM, an IC50 [3] of over 50 µM and a Papp [5] of 0.09 ×10⁻⁶ cm/s.

With `O=c1c2ccc(N3CCCC3)nc2oc2c(F)cccc12` the IC50 [2] was 19.2 µM, the IC50 [3] was over 50 µM and the CLint scaled [4] was 20.6 mL/min/kg. For the same compound, the Papp [5] was 9.1 ×10⁻⁶ cm/s.

`CC1c2ccc(N3CCCC3)cc2Oc2c(Cl)cccc21` (configuration not stated) gave a solubility [1] of under 1 µg/mL, an IC50 [2] of 1.5 µM and an IC50 [3] of over 50 µM. The Papp [5] was 0.015 ×10⁻⁶ cm/s.

`O=C1Nc2cccc(Cl)c2Oc2cc(N3CCC(C(=O)O)C3)ccc21` (configuration not stated) showed an IC50 [2] of 14.1 µM, an IC50 [3] of over 50 µM and a Papp [5] of 1.64 ×10⁻⁶ cm/s.
